# Assay results published in publication PMC8160934, “Different Biological Activities of Histidine-Rich Peptides Are Favored by Variations in Their Design” (Toxins, 2021).
# “Also recorded” adds a separate entry of the source.
# Tests used:
# HCT116 cells [1] = assay: Luciferase protein transduction; type: cell-based, human; conditions: HCT116, 2 µg recombinant luciferase with 10-32 µg peptide, 3 h in serum-free medium, mean of duplicates; result in words
# Procedure: To perform a rapid screening of the protein transduction activities of the two series of peptides, we selected to deliver the luciferase protein from Photinus pyralis, which has a molecular weight (MW) of 62 kDa and an isoelectric point (pI) of 6.3. Indeed, the measurement of the activity of this enzyme is fast and very sensitive. […] Increasing amounts of peptides were added to a fixed amount of luciferase, and after 3 h of incubation with the human colon cancer cells HCT116, enzymatic activity was measured.
# Figure 1 Transduction of the luciferase protein. HCT116 cells in 48-well plates were treated with 2 µg of recombinant luciferase (Rec. Luc) (per duplicate) in the presence or absence of LAH4 peptides (LAH4-Ln series in (A) and LAH4-An series in (B)). After 3 h of incubation in serum-free medium, cells were washed once with 1 mL/well of phosphate buffer saline (PBS), lysed, and the luciferase activity was determined. […] For each peptide, four conditions were tested: 10, 16, 24 and 32 µg of peptide/2 µg recombinant luciferase, except for LAH4 (16, 24 and 32 µg). Non-complexed recombinant luciferase was used as the control (black bar). The hydrophilic angles are shown in italics. […] It is uncertain whether it counts as a property result. The luciferase activities are shown only as bars, with no printed numbers, and are left out.
# Protein complexes were generated using increasing peptide/protein w/w ratios.
# Then, 0.25 mL of serum-free medium containing the peptide/protein complexes was transferred into each well. After an incubation time of 3 h at 37 °C the medium was removed, cells were washed once with 1 mL/well of PBS, and then 100 μL of lysis buffer was added per well. Luciferase activity and protein content were measured as described above.
# [2] = tested on: E. coli bacteria (ATCC 25922); conditions: cited from earlier work
# Procedure: Therefore, the antibacterial properties of both series of peptides were analyzed in Mueller–Hinton (MH) broth at pH 5 by determining the minimal inhibitory concentrations (MICs). […] Higher antimicrobial activity is observed when the angle increases. […] In contrast, for ...
# [3] = tested on: VSV and GALVTR pseudotyped lentiviruses; conditions: cited from earlier work
# [4] = in the transfection and other phosphate-containing buffers; cited from earlier work
# [5] = tested on: E. coli bacteria (ATCC 25922); assay: Broth microdilution antibacterial assay (MIC) in Mueller–Hinton broth, pH 5; type: cell-based; conditions: E. coli, Mueller–Hinton broth pH 5; x50 from Origin fits of the growth curves of Figure 3 (concentration range 100 µM to 0.52 µM); fit error given; * error estimated in the range of the 1.5-fold dilution steps
# Procedure: Therefore, the antibacterial properties of both series of peptides were analyzed in Mueller–Hinton (MH) broth at pH 5 by determining the minimal inhibitory concentrations (MICs).
# Figure 3 Bacterial growth as a function of peptide concentration for the LAH4-Ln (A) and the LAH4-An series (B). The average of two experimental data sets (each data point derived from triplicates under the same experiment conditions) covering the concentration range 100 µM to 0.52 µM are shown by the relative bacterial growth when compared to bacteria in the absence of peptide (=100%). To guide the eye, the data have been fitted with the function ymin + (ymax − ymin)/(1 + (x/xo)^p)^s using the OriginPro software. […] The assay was performed in Mueller–Hinton broth, pH 5.
# A broth microdilution assay was used to determine the minimal inhibitory concentration (MIC). A peptide aliquot of 1 mg was first solubilized in 50% ethanol (10 mM) then diluted in H2O to get a 300 μM peptide stock solution.
# For all the activity tests, E. coli bacteria (ATCC® 25922^TM, Thermo Fisher Scientific, Courtaboeuf, France) were used. Briefly, some colonies from E. coli spread on gelose were resuspended in Mueller–Hinton broth, pH 7.4. After incubation at 37 °C for about 6 h this preculture was diluted to OD550nm = 0.2 in MH at pH5 and allowed to grow to reach the exponential phase (OD550nm = 1–2). After two-step dilution in MH pH5, the working bacteria suspension corresponding to 1.10^5–2.10^5 colony-forming units (CFU)/mL was obtained.
# The antimicrobial testing was carried out in 96-well microplates (sterile polystyrene untreated with F-bottom, Thermo Scientific Nunc A/S, Roskilde, Denmark). The first column of the plate contains the highest final concentration (Cf) of peptide to test (two experiments were done: the first one starting at Cf 100 μM and a second one starting at 30 μM). All samples were added to the first column of the plate and subsequently spread onto the plate by a 1.5-fold dilution series in 10 steps. The last columns correspond to the positive and negative control conditions, respectively. Finally, the bacterial working suspension was distributed (50 μL at 1.10^5–2.10^5 CFU/mL in MH1X at pH 5) to each well except for the negative control (MH1X at pH5). The final volume was 100 μL/well and the range of peptide concentrations tested was from 100 μM to 1.73 μM for the first experiment and from 30 μM to 0.52 μM for the second experiment. The microplates were incubated at 37 °C for 12 h before bacterial growth was assessed by measuring the OD600. The initial bacterial density for each experiment was checked by spreading 100 μL of the working bacterial suspension, diluted 1/100 and 1/500 in MH1X, pH 5 on MH agar plates. After overnight incubation at 37 °C, the CFU were counted and the CFU/mL were determined. The percentage of bacterial growth compared to the positive control allows one to determine the MIC. The MIC values represent the average of the lowest tested peptide concentration (from both experiments) where most (at least 80%) of the bacterial growth is inhibited.
# [6] = naturally occurring antimicrobial peptides; cited from earlier work
# Description: The pronounced antimicrobial activities of cationic amphipathic peptides including LAH4 sequences have been associated with the perforation of microbial membranes. Indeed, under conditions where the peptides align along the membrane surface, high concentrations of LAH4 peptides result in the lysis of lipid bilayers. It is therefore unexpected that antimicrobial activity is highest for large hydrophilic angles, i.e., in inverse correlation with calcein release (Table 2, Figure 5). However, some of the naturally occurring antimicrobial pept ...
# U87 cells = assay: DNA transfection with p-Luc plasmid, luciferase expression; conditions: 1.5 µg pDNA with 7.5-25 µg peptide, 2 h 30 min, read one day post-transfection, mean of duplicates, result in words
# Procedure: In vitro cell transfection experiments were performed using the plasmid p-Luc (7.6 kb), which is an expression plasmid encoding the firefly luciferase gene under the control of the human cytomegalovirus (CMV) immediate–early promoter. In total, 55,000 U87 cells were plated in 48-well plates one day before the experiment was performed. For transfection, 0.25 mL of serum-free culture medium containing the DNA complexes was deposited into each well of the duplicate. After incubation for approximately 2 h 30 min at 37 °C the medium was replaced with a fresh one containing serum. Luciferase activity was measured as described below in the cell lysate one day after transfection.
# Transfection complexes were prepared as follows: for a duplicate, 1.5 μg of plasmid DNA and the desired amount of peptide were each diluted into 25 μL of acetate buffer pH 5 and gently mixed. DNA complexes were generated using increasing peptide/DNA w/w ratios. After 20 min of incubation at room temperature, the mixture was diluted with culture medium to obtain a final volume of 0.5 mL.
# For luciferase activity, cells were harvested in 100 μL of lysis buffer (8 mM MgCl2, 1 mM DTT, 1 mM EDTA, 0.6% Triton X-100, 15% glycerol, and 25 mM Tris-phosphate buffer pH 7.8). The cell lysate was then transferred into Eppendorf tubes and centrifuged for 7 min at 10,000× g to pellet debris. Luciferase light units were measured in a 96-well plate format with a Centro LB luminometer (Berthold) from an aliquot of the supernatant (2 μL) with 1 s integration after automatic injection of 50 μL assay buffer (lysis buffer without Triton X-100 but supplemented with 2 mM ATP) and 50 μL of a luciferin solution (167 μM in water). Luciferase background was subtracted from each value and the protein content of the transfected cells was measured by Bradford dye-binding using the BioRad protein assay (Bio-Rad). The transfection efficiency was expressed as light units/s/mg protein (light units measured over a period of 1 s, and the values were then normalized after measurement of the amount of protein present in each well). The reported values are the mean of duplicates. Error bars represent the standard deviation of the mean.
# glioblastoma U87 cells. Increasing amounts of peptide were mixed with a constant amount of reporter
# plasmid (1.5 µg per duplicate of pDNA) and the complexes were incubated for 2h 30min with the
# cells plated in 48-well plates. The transfection medium was then removed and replaced with fresh
# culture medium supplemented with 10% serum. Luciferase activity was measured one day post-
# transfection. The transfection efficiency is expressed as light units/s/mg protein and the reported
# values are the mean of duplicates. Error bars represent the standard deviation of the mean.
# HCT116 cells [7] = assay: Saporin delivery, MTS cell viability; type: cell-based, human; conditions: HCT116, 0.54 µg/triplicate non-complexed saporin, 2 h 30 min, MTS two days later; result in words
# Procedure: Figure 2 Transduction of the plant toxin saporin. HCT116 cells plated in 96-well plates were treated with 0.54 µg/triplicate of saporin in the absence or presence of LAH4 peptides (LAH4-Ln series in (A) and LAH4-An series in (B)). […] Two days later, an MTS assay was performed. The cell viability efficiency is expressed relative to untreated cells (=100%). […] For each peptide 3 conditions were tested: 4.05, 5.4 and 8.1 µg of peptide/0.54 µg saporin. Untreated cells (=100%; purple bar) and non-complexed saporin (black bar) were used as the control. The hydrophilic angles are shown on top in italics. […] The cell viability values appear only as bars and are not printed, so none are given. […]
# Cell metabolic activity was measured by using an MTS (3-(4,5-dimethylthiazol-2-yl)-5-(3-carboxymethoxyphenyl)-2-(4-sulfophenyl)-2H-tetrazolium) assay (CellTiter 96® AQ ueous One Solution Cell Proliferation Assay, Promega). […] Plates were read at 490 nm (reagent absorbance) and 680 nm (background) (SP200, Safas, Monaco). The results were expressed by the subtraction of background absorbance and the expression of viability relative to non-treated controls (considered as 100% viability).
Substance,"luciferase protein transduction efficiency (luciferase activity, light units/s/mg protein) (HCT116 cells [1])",MIC50 [5],hydrophilic angle [6],also measured
H-KKALLALALHHLAHLALHLALALKKA-NH2 [LAH4],the most efficient peptides,,,"pH dependence of antimicrobial activity ([2]; E. coli, pH 5 compared to pH 7.5, result in words): considerably more pronounced at pH 5; MIC ([2]; reference peptide LAH4, E. coli): 8.8 µM"
"H-KKALLHAALAHLLALAHHLLALLKKA-NH2 [LAH4-A4, isomer of LAH4, LAH4-An series, also named Vectofusin-1]",,6 µM,,lentiviral transduction enhancement [3]: highly efficient; also recorded: enhances the transduction; formation of fibers [4]: formation of fibers
magainin 2,,,180 °,
cecropin,,,180 °,
"H-KKALLHALLAHLAALLHALLAHLKKA-NH2 [LAH4-A5, isomer of LAH4, LAH4-An series]",the most efficient peptides,5.3 µM,,DNA transfection activity (luciferase activity) (U87 cells): high levels of activity
saporin,,,,cell death induced by saporin alone (HCT116 cells [7]): low levels of cell death
